Target: CDK4 (Homo sapiens, UniProt P11802+Q16531)
Experiment: HiBiT detection of HiBiT-tagged CDK4 protein level in MCF7 cells, 16 hours (Table 8)
Type: cell-based
Design: expressed in transfected cells; host or cells: MCF7
Conditions: MCF7 cells stably expressing HiBiT tagged target proteins; for activity at 0.01 µM: 10 nM, read-out: % CDK4 Relative Level (10 nM); for activity at 0.1 µM: 100 nM, read-out: % CDK4 Relative Level (100 nM)
Procedure: HiBiT detection system quantitatively measures total amounts of HiBiT-tagged proteins using a luminescent based method. MCF7 cells stably expressing HiBiT tagged target proteins were treated with heterobifunctional compounds at indicated concentrations for 16 hours, then lysed with Nano-Glo HiBiT Lytic detection reagents.

Chain of CDK4 (P11802 whole entry): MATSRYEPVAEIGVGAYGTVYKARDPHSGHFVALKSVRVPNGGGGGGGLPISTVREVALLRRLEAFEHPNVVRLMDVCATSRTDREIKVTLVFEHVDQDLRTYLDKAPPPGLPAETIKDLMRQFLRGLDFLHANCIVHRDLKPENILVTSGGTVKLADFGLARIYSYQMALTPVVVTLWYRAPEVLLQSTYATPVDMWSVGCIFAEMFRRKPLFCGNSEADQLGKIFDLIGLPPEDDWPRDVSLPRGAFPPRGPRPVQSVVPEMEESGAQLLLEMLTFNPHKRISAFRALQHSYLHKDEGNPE
Chain of CDK4 (P24385 whole entry partner): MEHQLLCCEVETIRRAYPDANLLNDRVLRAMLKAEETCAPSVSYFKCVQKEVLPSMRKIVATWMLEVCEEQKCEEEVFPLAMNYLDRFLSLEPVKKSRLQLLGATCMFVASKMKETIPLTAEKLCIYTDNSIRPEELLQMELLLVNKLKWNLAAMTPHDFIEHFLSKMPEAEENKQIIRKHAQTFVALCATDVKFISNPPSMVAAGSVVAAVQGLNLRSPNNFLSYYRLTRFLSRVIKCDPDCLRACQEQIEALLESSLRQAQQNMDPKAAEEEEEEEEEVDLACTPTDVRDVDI
Chain of CDK4 (Q16531 2-1140 limits assumed): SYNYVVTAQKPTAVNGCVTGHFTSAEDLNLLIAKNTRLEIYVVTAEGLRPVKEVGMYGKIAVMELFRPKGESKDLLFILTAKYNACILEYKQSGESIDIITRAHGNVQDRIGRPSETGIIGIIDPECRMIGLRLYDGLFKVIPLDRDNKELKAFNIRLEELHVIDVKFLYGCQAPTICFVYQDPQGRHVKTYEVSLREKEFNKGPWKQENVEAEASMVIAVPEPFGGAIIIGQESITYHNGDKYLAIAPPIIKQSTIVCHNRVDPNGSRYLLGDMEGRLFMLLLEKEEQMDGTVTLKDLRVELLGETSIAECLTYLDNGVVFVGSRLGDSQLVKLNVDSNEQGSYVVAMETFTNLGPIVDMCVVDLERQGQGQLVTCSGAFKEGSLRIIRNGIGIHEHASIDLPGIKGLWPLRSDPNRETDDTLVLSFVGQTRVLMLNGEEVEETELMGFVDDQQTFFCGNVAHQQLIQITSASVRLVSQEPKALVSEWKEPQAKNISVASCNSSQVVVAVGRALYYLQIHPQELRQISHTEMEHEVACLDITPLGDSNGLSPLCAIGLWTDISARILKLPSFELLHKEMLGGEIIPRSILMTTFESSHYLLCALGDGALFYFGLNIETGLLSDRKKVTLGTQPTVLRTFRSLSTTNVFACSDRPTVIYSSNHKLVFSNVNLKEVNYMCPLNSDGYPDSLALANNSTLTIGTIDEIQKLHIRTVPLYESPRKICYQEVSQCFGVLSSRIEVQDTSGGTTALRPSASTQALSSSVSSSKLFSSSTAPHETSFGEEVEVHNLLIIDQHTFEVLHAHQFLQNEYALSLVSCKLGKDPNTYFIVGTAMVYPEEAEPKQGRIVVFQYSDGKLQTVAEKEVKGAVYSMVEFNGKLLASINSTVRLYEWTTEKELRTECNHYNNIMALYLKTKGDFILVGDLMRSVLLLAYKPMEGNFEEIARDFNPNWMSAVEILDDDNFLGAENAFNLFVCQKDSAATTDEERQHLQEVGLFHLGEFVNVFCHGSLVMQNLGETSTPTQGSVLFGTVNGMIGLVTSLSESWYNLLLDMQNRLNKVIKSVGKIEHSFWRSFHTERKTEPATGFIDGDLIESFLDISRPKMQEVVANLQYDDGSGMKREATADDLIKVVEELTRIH

Compound | activity at 0.01 µM | activity at 0.1 µM
CNc1ccc(C(=O)Nc2ccc(N(C)C)nn2)c(NCCOCCC(=O)N2CCN(Cc3ccc(Nc4ncc(F)c(-c5cc(F)c6nc(C)n(C(C)C)c6c5)n4)nc3)CC2)n1 [CPD-606, N-(6-(dimethylamino)pyridazin-3-yl)-2-((2-(3-(4-((6-((5-fluoro-4-(4-fluoro-1-isopropyl-2-methyl-1H-benzo[d]imidazol-6-yl)pyrimidin-2-yl)amino)pyridin-3-yl)methyl)piperazin-1-yl)-3-oxopropoxy)ethyl)amino)-6-(methylamino)nicotinamide] | > 85% | > 85%
CNc1ccc(C(=O)Nc2ccc(N(C)C)nn2)c(NCCOCCOCCC(=O)N2CCN(c3ccc(Nc4ncc5cc(C(=O)N(C)C)n(C6CCCC6)c5n4)nc3)CC2)n1 [CPD-623, 7-cyclopentyl-2-((5-(4-(3-(2-(2-((3-((6-(dimethylamino)pyridazin-3-yl)carbamoyl)-6-(methylamino)pyridin-2-yl)amino)ethoxy)ethoxy)propanoyl)piperazin-1-yl)pyridin-2-yl)amino)-N,N-dimethyl-7H-pyrrolo[2,3-d]pyrimidine-6-carboxamide] | > 85% | > 85%
CNc1ccc(C(=O)Nc2ccc(N(C)C)nn2)c(NCCNC(=O)CN2CCN(c3ccc(Nc4ncc5cc(C(=O)N(C)C)n(C6CCCC6)c5n4)nc3)CC2)n1 [CPD-624, 7-cyclopentyl-2-((5-(4-(2-((2-((3-((6-(dimethylamino)pyridazin-3-yl)carbamoyl)-6-(methylamino)pyridin-2-yl)amino)ethyl)amino)-2-oxoethyl)piperazin-1-yl)pyridin-2-yl)amino)-N,N-dimethyl-7H-pyrrolo[2,3-d]pyrimidine-6-carboxamide] | 55 to 85% | 55 to 85%
CNc1ccc(C(=O)Nc2ccc(N(C)C)nn2)c(NCCOCCNC(=O)CN2CCN(c3ccc(Nc4ncc5cc(C(=O)N(C)C)n(C6CCCC6)c5n4)nc3)CC2)n1 [CPD-631, 7-cyclopentyl-2-((5-(4-(2-((2-(2-((3-((6-(dimethylamino)pyridazin-3-yl)carbamoyl)-6-(methylamino)pyridin-2-yl)amino)ethoxy)ethyl)amino)-2-oxoethyl)piperazin-1-yl)pyridin-2-yl)amino)-N,N-dimethyl-7H-pyrrolo[2,3-d]pyrimidine-6-carboxamide] | > 85% | > 85%
CNc1ccc(C(=O)Nc2ccc(N(C)C)nn2)c(NCCC(=O)N2CCN(c3ccc(Nc4ncc5cc6n(c5n4)C4(CCCCC4)CNC6=O)nc3)CC2)n1 [CPD-632, N-(6-(dimethylamino)pyridazin-3-yl)-6-(methylamino)-2-((3-oxo-3-(4-(6-((6′-oxo-7′,8′-dihydro-6′H-spiro[cyclohexane-1,9′-pyrazino[1′,2′:1,5]pyrrolo[2,3-d]pyrimidin]-2′-yl)amino)pyridin-3-yl)piperazin-1-yl)propyl)amino)nicotinamide] | > 85% | > 85%
CNc1ccc(C(=O)Nc2ccc(N(C)C)nn2)c(NCCCCCCCC(=O)N2CCN(c3ccc(Nc4ncc5cc6n(c5n4)C4(CCCCC4)CNC6=O)nc3)CC2)n1 [CPD-637, N-(6-(dimethylamino)pyridazin-3-yl)-6-(methylamino)-2-((8-oxo-8-(4-(6-((6′-oxo-7′,8′-dihydro-6′H-spiro[cyclohexane-1,9′-pyrazino[1′,2′:1,5]pyrrolo[2,3-d]pyrimidin]-2′-yl)amino)pyridin-3-yl)piperazin-1-yl)octyl)amino)nicotinamide] | > 85% | > 85%
CNc1ccc(C(=O)Nc2ccc(N(C)C)nn2)c(NCCOCCC(=O)N2CCN(c3ccc(Nc4ncc5cc6n(c5n4)C4(CCCCC4)CNC6=O)nc3)CC2)n1 [CPD-638] | > 85% | > 85%
CNc1ccc(C(=O)Nc2ccc(N(C)C)nn2)c(NCCNC(=O)CN2CCN(c3ccc(Nc4ncc5cc6n(c5n4)C4(CCCCC4)CNC6=O)nc3)CC2)n1 [CPD-640, N-(6-(dimethylamino)pyridazin-3-yl)-6-(methylamino)-2-((2-(2-(4-(6-((6′-oxo-7′,8′-dihydro-6′H-spiro[cyclohexane-1,9′-pyrazino[1′,2′:1,5]pyrrolo[2,3-d]pyrimidin]-2′-yl)amino)pyridin-3-yl)piperazin-1-yl)acetamido)ethyl)amino)nicotinamide] | > 85% | 55 to 85%
CNc1ccc(C(=O)Nc2ccc(N(C)C)nn2)c(NCCCNC(=O)CN2CCN(c3ccc(Nc4ncc5cc6n(c5n4)C4(CCCCC4)CNC6=O)nc3)CC2)n1 [CPD-641, N-(6-(dimethylamino)pyridazin-3-yl)-6-(methylamino)-2-((3-(2-(4-(6-((6′-oxo-7′,8′-dihydro-6′H-spiro[cyclohexane-1,9′-pyrazino[1′,2′:1,5]pyrrolo[2,3-d]pyrimidin]-2′-yl)amino)pyridin-3-yl)piperazin-1-yl)acetamido)propyl)amino)nicotinamide] | > 85% | > 85%
CNc1ccc(C(=O)Nc2ccc(N(C)C)nn2)c(NCCOCCNC(=O)CN2CCN(c3ccc(Nc4ncc5cc6n(c5n4)C4(CCCCC4)CNC6=O)nc3)CC2)n1 [CPD-647, N-(6-(dimethylamino)pyridazin-3-yl)-6-(methylamino)-2-((2-(2-(2-(4-(6-((6′-oxo-7′,8′-dihydro-6′H-spiro[cyclohexane-1,9′-pyrazino[1′,2′:1,5]pyrrolo[2,3-d]pyrimidin]-2′-yl)amino)pyridin-3-yl)piperazin-1-yl)acetamido)ethoxy)ethyl)amino)nicotinamide] | > 85% | > 85%
CNc1ccc(C(=O)Nc2ccc(N(C)C)nn2)c(NCCC(=O)N2CCN(c3ccc(Nc4ncc(F)c(-c5cc(F)c6nc(C)n(C(C)C)c6c5)n4)nc3)CC2)n1 [CPD-648, N-(6-(dimethylamino)pyridazin-3-yl)-2-((3-(4-(6-((5-fluoro-4-(4-fluoro-1-isopropyl-2-methyl-1H-benzo[d]imidazol-6-yl)pyrimidin-2-yl)amino)pyridin-3-yl)piperazin-1-yl)-3-oxopropyl)amino)-6-(methylamino)nicotinamide] | > 85% | > 85%

The remaining lines, values ahead:

activity at 0.01 µM | activity at 0.1 µM | Compound
> 85% | > 85% | CNc1ccc(C(=O)Nc2ccc(N(C)C)nn2)c(NCCCCNC(=O)CN2CCN(Cc3ccc(Nc4ncc(F)c(-c5cc(F)c6nc(C)n(C(C)C)c6c5)n4)nc3)CC2)n1 [CPD-610, N-(6-(dimethylamino)pyridazin-3-yl)-2-((4-(2-(4-((6-((5-fluoro-4-(4-fluoro-1-isopropyl-2-methyl-1H-benzo[d]imidazol-6-yl)pyrimidin-2-yl)amino)pyridin-3-yl)methyl)piperazin-1-yl)acetamido)butyl)amino)-6-(methylamino)nicotinamide]
> 85% | > 85% | CNc1ccc(C(=O)Nc2ccc(N(C)C)nn2)c(NCCCCCNC(=O)CN2CCN(Cc3ccc(Nc4ncc(F)c(-c5cc(F)c6nc(C)n(C(C)C)c6c5)n4)nc3)CC2)n1 [CPD-611, N-(6-(dimethylamino)pyridazin-3-yl)-2-((5-(2-(4-((6-((5-fluoro-4-(4-fluoro-1-isopropyl-2-methyl-1H-benzo[d]imidazol-6-yl)pyrimidin-2-yl)amino)pyridin-3-yl)methyl)piperazin-1-yl)acetamido)pentyl)amino)-6-(methylamino)nicotinamide]
> 85% | > 85% | CNc1ccc(C(=O)Nc2ccc(N(C)C)nn2)c(NCCCCCCNC(=O)CN2CCN(Cc3ccc(Nc4ncc(F)c(-c5cc(F)c6nc(C)n(C(C)C)c6c5)n4)nc3)CC2)n1 [CPD-612, N-(6-(dimethylamino)pyridazin-3-yl)-2-((6-(2-(4-((6-((5-fluoro-4-(4-fluoro-1-isopropyl-2-methyl-1H-benzo[d]imidazol-6-yl)pyrimidin-2-yl)amino)pyridin-3-yl)methyl)piperazin-1-yl)acetamido)hexyl)amino)-6-(methylamino)nicotinamide]
> 85% | > 85% | CNc1ccc(C(=O)Nc2ccc(N(C)C)nn2)c(NCCCCCCCNC(=O)CN2CCN(Cc3ccc(Nc4ncc(F)c(-c5cc(F)c6nc(C)n(C(C)C)c6c5)n4)nc3)CC2)n1 [CPD-613, N-(6-(dimethylamino)pyridazin-3-yl)-2-((7-(2-(4-((6-((5-fluoro-4-(4-fluoro-1-isopropyl-2-methyl-1H-benzo[d]imidazol-6-yl)pyrimidin-2-yl)amino)pyridin-3-yl)methyl)piperazin-1-yl)acetamido)heptyl)amino)-6-(methylamino)nicotinamide]
> 85% | > 85% | CNc1ccc(C(=O)Nc2ccc(N(C)C)nn2)c(NCCCCCCCCNC(=O)CN2CCN(Cc3ccc(Nc4ncc(F)c(-c5cc(F)c6nc(C)n(C(C)C)c6c5)n4)nc3)CC2)n1 [CPD-614, N-(6-(dimethylamino)pyridazin-3-yl)-2-((8-(2-(4-((6-((5-fluoro-4-(4-fluoro-1-isopropyl-2-methyl-1H-benzo[d]imidazol-6-yl)pyrimidin-2-yl)amino)pyridin-3-yl)methyl)piperazin-1-yl)acetamido)octyl)amino)-6-(methylamino)nicotinamide]
> 85% | > 85% | CNc1ccc(C(=O)Nc2ccc(N(C)C)nn2)c(NCCOCCNC(=O)CN2CCN(Cc3ccc(Nc4ncc(F)c(-c5cc(F)c6nc(C)n(C(C)C)c6c5)n4)nc3)CC2)n1 [CPD-615, N-(6-(dimethylamino)pyridazin-3-yl)-2-((2-(2-(2-(4-((6-((5-fluoro-4-(4-fluoro-1-isopropyl-2-methyl-1H-benzo[d]imidazol-6-yl)pyrimidin-2-yl)amino)pyridin-3-yl)methyl)piperazin-1-yl)acetamido)ethoxy)ethyl)amino)-6-(methylamino)nicotinamide]

Source: patent US20260297081A1, “COMPOUNDS AND METHODS OF TREATING CANCERS” (Cullgen Inc., priority 2023, published 2026)
